In ChEMBL document CHEMBL1201862, “PubChem BioAssay data set” (2004):
Active and inactive are the calls of the source.

Key:
[1] = target: Beta-2 adrenergic receptor (Homo sapiens, UniProt P07550); assay: ADRB2 activation measured by internalization – cell-based, FAP fluorogen, flow cytometry, cherry pick 1, dose response (AID 588763); type: functional
[2] = target: Dual specificity tyrosine-phosphorylation-regulated kinase 1A (Rattus norvegicus, UniProt Q63470); type: biochemical, Homo sapiens
HEK293 = assay: EBV LMP1 TES2 canonical NF-kB signalling blockers – cell-based, HEK293, luciferase, cherry-pick, dose response (AID 588343); type: functional; details: Homo sapiens
[3] = target: ATP-dependent molecular chaperone HSP82 (Candida albicans (strain WO-1) (Yeast), UniProt C4YTQ8); assay: steroid-induced GRE reporter decrease in yeast – S. cerevisiae, luminescence, Hsp90 inhibitor project, dose response (AID 2400); type: functional, cell-based;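 also: beta-galactosidase luminescence from glucocorticoid response element reporter as proxy for Hsp90 function; inhibitor potency where signal loss means Hsp90 inhibition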
Chain of ATP-dependent molecular chaperone HSP82 (C4YTQ8 whole entry): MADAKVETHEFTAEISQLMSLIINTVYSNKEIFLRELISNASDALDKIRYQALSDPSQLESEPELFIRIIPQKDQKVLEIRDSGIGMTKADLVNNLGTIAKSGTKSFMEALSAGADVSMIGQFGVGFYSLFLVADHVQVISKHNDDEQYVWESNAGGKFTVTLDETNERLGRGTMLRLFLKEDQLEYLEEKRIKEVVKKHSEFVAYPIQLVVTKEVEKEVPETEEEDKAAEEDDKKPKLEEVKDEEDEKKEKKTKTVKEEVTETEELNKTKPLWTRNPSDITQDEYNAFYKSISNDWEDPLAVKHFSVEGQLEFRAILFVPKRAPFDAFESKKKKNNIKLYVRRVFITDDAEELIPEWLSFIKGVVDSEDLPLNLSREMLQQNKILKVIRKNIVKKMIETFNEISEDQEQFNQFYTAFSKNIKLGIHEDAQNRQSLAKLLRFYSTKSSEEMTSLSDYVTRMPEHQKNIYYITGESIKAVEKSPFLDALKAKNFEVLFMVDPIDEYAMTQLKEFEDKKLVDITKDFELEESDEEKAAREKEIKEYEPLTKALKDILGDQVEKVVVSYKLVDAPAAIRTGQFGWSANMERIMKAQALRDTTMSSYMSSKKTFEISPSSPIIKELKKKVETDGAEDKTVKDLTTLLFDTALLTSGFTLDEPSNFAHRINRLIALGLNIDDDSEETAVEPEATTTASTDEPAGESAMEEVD

cells [4] = type: functional, cell-based
[5] = HEK-293T viability loss after treatment – luminescence, T-cell screen hits, cytotoxicity control for TCR NF-kB inhibitor project, dose response (AID 489026); type: functional, cell-based;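 also: cells exposed to compound about 14 hours before the viability readout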
[6] = target: Photoreceptor-specific nuclear receptor (Homo sapiens, UniProt Q9Y5X4); type: functional, cell-based;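 also: CHO-S cells with Gal4-NCOR and VP16-NR2E3 two-hybrid luciferase reporter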
Chain of Photoreceptor-specific nuclear receptor (Q9Y5X4 whole entry, the tested form may be a part): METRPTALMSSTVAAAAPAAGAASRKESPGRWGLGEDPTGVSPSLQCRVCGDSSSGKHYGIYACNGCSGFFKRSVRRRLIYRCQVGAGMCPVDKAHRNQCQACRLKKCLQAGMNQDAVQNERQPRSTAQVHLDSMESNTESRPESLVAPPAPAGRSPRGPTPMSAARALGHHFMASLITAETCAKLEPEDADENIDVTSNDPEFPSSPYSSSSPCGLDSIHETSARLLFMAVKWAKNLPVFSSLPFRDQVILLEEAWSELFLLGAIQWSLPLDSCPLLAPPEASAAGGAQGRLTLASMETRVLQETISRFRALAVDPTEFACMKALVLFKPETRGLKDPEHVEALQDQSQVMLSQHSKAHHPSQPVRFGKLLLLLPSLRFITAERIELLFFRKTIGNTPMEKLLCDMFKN

[7] = NIH-3T3 fibroblast cytotoxicity, dose response, cytotoxicity control, cell-based, fluorescence, Alamar Blue, secondary assay (AID 2327); type: functional;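 also: NIH-3T3 mouse fibroblasts cultured with fluconazole at 8 µg/mL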
[8] = Counterscreen for activators of the function of SWI/SNF related, matrix associated, actin dependent regulator of chromatin, subfamily a, member 2 (SMARCA2, BRM): Luminescence-based cell-based high throughput dose response assay to identify non-selective compounds using the VP16 reporter assay.; type: functional
cells [9] = type: functional, cell-based; remark: listed apart in the source
[10] = fluconazole-exposed Candida albicans growth modulators – fluorescence, retest, confirmation (AID 2467); type: functional, cell-based
[11] = target: T1, Serine/threonine-protein phosphatase (Candida dubliniensis (strain CD36 / CBS 7987 / NCPF 3949 / NRRLY-17841) (Yeast), UniProt B9W6M3); assay: blockers of CaCl2-induced CDRE-lacZ signaling – S. cerevisiae, luminescence, secondary, dose response (AID 2388); type: functional, cell-based;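 also: yeast reporter cells carrying a calcineurin-responsive lacZ construct stimulated with calcium chloride; luminescent beta-galactosidase reporter signal in whole cells rather than isolated phosphatase activity; potency for inhibition where a drop in reporter signal means calcineurin blockade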
T1 sequence (B9W6M3 whole entry): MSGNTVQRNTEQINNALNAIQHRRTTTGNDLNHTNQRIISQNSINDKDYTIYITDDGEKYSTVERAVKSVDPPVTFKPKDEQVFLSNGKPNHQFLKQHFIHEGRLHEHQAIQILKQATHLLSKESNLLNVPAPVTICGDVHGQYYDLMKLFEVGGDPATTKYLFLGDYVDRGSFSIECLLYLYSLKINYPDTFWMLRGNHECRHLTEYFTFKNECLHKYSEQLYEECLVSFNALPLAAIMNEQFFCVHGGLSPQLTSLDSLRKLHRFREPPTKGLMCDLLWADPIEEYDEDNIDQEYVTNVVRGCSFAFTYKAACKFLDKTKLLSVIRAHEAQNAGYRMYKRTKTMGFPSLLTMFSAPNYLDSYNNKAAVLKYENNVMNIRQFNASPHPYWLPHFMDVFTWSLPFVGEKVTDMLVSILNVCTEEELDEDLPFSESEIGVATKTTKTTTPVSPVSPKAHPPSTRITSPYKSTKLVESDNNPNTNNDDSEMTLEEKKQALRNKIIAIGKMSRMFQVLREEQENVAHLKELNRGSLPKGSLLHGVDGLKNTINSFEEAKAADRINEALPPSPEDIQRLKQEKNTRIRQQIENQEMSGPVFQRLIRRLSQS

[12] = target: SWI/SNF-related matrix-associated actin-dependent regulator of chromatin subfamily A member 2 (Homo sapiens, UniProt P51531); assay: Luminescence-based cell-based high throughput dose response assay to identify activators of the function of SWI/SNF related, matrix associated, actin dependent regulator of chromatin, subfamily a, member 2 (SMARCA2, BRM).; type: functional
Chain of SWI/SNF-related matrix-associated actin-dependent regulator of chromatin subfamily A member 2 (P51531 whole entry): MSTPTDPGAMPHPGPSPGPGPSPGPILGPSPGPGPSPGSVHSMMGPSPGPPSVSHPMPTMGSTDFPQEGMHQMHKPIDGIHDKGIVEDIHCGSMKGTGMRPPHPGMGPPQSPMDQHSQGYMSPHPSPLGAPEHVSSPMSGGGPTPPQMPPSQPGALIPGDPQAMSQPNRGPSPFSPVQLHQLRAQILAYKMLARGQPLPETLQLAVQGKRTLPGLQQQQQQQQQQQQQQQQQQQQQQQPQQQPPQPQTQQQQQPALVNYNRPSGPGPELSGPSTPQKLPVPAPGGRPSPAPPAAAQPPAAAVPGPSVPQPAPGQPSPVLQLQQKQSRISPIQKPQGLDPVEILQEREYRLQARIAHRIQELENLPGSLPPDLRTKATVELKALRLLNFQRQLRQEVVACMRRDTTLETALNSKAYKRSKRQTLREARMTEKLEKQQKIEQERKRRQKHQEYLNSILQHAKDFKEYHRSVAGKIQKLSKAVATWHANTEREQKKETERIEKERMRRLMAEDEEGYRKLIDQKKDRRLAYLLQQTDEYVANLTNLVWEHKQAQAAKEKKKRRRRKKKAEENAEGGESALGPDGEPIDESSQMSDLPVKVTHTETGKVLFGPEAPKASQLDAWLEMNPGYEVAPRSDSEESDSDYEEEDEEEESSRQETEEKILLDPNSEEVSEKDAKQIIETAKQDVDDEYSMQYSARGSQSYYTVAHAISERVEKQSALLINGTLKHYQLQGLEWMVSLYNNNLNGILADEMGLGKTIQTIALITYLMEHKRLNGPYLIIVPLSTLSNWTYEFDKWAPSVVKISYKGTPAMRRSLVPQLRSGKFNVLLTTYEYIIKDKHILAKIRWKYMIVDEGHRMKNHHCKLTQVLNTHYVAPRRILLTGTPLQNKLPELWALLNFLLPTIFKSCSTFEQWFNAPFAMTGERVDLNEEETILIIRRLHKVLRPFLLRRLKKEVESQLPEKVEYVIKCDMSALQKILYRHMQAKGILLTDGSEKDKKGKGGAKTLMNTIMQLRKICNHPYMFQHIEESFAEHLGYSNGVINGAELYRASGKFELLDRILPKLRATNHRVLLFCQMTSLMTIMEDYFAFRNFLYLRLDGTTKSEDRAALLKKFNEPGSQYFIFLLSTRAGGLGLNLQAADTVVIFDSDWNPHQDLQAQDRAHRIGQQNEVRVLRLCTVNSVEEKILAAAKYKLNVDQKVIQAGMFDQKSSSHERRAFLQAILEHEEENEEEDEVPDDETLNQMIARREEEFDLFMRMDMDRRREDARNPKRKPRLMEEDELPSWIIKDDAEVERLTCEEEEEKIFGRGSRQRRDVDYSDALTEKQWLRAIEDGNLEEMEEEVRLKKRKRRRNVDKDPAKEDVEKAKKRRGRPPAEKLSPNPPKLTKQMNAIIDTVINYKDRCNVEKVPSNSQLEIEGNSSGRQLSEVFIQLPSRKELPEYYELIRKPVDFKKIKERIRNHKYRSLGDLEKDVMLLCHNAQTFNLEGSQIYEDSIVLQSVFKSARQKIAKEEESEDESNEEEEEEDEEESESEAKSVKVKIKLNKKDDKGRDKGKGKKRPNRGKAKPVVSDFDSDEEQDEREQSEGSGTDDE

HeLa = assay: toxicity to human HeLa cells – cell-based, 48 h, plate reader, cherry-picks, cytotoxicity control, dose response (AID 504942); type: functional
[13] = target: T2, Acyl-homoserine lactone acylase PvdQ (Pseudomonas aeruginosa (strain LESB58), UniProt Q9I194); assay: PvdQ acylase enzyme activity blockers – biochemical, fluorescence, plate reader and imaging, cherry-picks, dose response (AID 493231)
T2 sequence (Q9I194 whole entry): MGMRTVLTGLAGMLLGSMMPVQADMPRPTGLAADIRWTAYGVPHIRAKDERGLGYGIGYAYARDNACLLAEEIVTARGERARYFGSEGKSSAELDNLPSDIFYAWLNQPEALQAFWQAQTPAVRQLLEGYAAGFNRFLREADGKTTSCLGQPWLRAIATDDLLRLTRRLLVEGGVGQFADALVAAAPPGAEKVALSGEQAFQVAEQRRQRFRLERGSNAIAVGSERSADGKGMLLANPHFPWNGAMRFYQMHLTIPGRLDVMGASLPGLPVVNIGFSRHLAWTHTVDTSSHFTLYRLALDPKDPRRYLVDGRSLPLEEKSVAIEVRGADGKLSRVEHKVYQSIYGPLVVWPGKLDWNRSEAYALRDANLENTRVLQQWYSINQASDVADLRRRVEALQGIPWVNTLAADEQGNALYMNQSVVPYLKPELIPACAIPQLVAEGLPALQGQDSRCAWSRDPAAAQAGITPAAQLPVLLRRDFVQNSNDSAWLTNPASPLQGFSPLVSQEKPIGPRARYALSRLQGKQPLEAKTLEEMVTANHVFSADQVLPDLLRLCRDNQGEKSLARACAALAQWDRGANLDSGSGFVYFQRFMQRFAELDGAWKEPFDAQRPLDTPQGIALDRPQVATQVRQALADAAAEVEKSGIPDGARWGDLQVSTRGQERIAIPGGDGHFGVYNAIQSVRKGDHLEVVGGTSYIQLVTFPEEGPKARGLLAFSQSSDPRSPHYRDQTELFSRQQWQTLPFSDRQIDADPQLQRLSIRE

Chain of Beta-2 adrenergic receptor (P07550 whole entry): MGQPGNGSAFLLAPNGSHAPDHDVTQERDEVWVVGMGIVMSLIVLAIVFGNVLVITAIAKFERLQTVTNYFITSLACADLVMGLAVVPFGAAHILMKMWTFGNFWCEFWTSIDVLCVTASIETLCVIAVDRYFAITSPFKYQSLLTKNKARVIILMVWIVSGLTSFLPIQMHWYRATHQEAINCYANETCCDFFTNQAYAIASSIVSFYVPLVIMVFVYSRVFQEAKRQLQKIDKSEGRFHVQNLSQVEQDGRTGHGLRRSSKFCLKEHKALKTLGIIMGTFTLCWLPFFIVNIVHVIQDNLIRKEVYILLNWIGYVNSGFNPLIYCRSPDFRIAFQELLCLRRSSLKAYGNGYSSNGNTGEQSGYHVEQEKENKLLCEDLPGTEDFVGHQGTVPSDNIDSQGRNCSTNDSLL

## CCc1ccc(CN2CCC(Oc3ccc(C(=O)N4CCCC4)cc3)CC2)cc1
[1]
  EC50: 936 nM (active)

## COc1ccc2c(c1)/C(=C/c1cnc[nH]1)C(=O)N2 [SU-9516]
[2]
  AC50: 995 nM (active)
HEK293
  AC50: 34.2 µM (active)
[3]
  EC50: > 160 µM (inactive)
Cells [4]
  EC50: > 350 µM (not active)
[5]
  IC50: 71.8 µM (inactive)
[6]
  IC50: 1.19 µM (active)
[7]
  EC50: > 160 µM (inactive)
[8]
  EC50: > 91.2 µM (inactive)
Cells [9]
  EC50: > 350 µM (not active)
[10]
  EC50: 956 nM (active)
[11]
  EC50: > 180 µM (inactive)
[12]
  EC50: > 91.2 µM (inactive)

## Cc1cc(NC(=O)Nc2ccccc2[N+](=O)[O-])no1
HeLa
  AC50: > 380 µM (inactive)
[13]
  AC50: 2.02 µM (active)
